Earlier results in patent US20140106026A1, “ARTICLE AND METHOD FOR TREATING, PREVENTING AND AMELIORATING ALCOHOL-INDUCED WERNICKE-KORSAKOFF SYNDROME” (priority 2012, published 2014).
Like-named read-outs stand apart in the source and are kept apart here.

Assays:
[1] = not given; remark: listed apart in the source
[2] = not given; remark: listed apart in the source
[3] = oral intake

solubility (in acetone, ether, chloroform, and benzene): practically insoluble
solubility (in water, methanol, and glycerol): soluble
half-life, in vivo [1]: approximately two
stability ([2]; at acidic pH): stable
stability ([2]; in alkaline solutions): unstable
stability towards sulfite ([2]; sulfite as contained in wine and cordials): degrades
intake above which decline in thiamine absorption occurs [3]: above 5 mg
Compound: Cc1ncc(C[n+]2csc(CCO)c2C)c(N)n1 [Thiamine]
